Experimental data reported in patent publication US20250231185A1, “Coronavirus T Cell Epitopes, Megapools and Uses Thereof” (La Jolla Institute for Immunology, priority 2021, published 2025).

System: CD8+ T cells
Experiment: Meta-analysis of published SARS-CoV-2 CD8 T cell epitope data curated in the IEDB (25 studies)
Format: cell-based, human
[1] = SARS-CoV-2-derived CD8 epitopes, dominant = recognized by 3 or more donors/different studies
[2] = CD8S (D) Megapool, antigen S, dominant = recognized in 3 or more donors/studies
[3] = CD8-restricted SARS-CoV-2 epitopes, Yes = recognized by 3 or more donors/different studies
[4] = CD8 epitopes, Yes = recognized by 3 or more donors/different studies

Substance: 882 (SMWALIISV) [compound 882]
- Dominant [1]: Yes (more dominant epitopes are defined by being recognized by 3 or more donors/different studies)

Substance: 1513 (APHGVVFLHV) [compound 1513]
- Dominant [2]: Yes (more dominant epitopes are defined by being recognized by 3 or more donors/different studies)

Substance: 1176 (KLFIRQEEV) [compound 1176]
- Dominant [3]: Yes (more dominant epitopes are defined by being recognized by 3 or more donors/different studies)

Substance: 1204 (YTNSFTRGVY) [compound 1204]
- Dominant [3]: Yes (more dominant epitopes are defined by being recognized by 3 or more donors/different studies)

Substance: 1249 (TPINLVRDL) [compound 1249]
- Dominant [3]: Yes (more dominant epitopes are defined by being recognized by 3 or more donors/different studies)

Substance: 457 (SMWSFNPET) [compound 457]
- Dominant [4]: Yes (more dominant epitopes are defined by being recognized by 3 or more donors/different studies)

Substance: 1516 (RLNEVAKNL) [compound 1516]
- Dominant [2]: Yes (more dominant epitopes are defined by being recognized by 3 or more donors/different studies)

Substance: 1486 (KLPDDFTGCV) [compound 1486]
- Dominant [2]: Yes (more dominant epitopes are defined by being recognized by 3 or more donors/different studies)

Substance: 1150 (FTSDYYQLY) [compound 1150]
- Dominant [3]: Yes (more dominant epitopes are defined by being recognized by 3 or more donors/different studies)

Substance: 1484 (KCYGVSPTK) [compound 1484]
- Dominant [2]: Yes (more dominant epitopes are defined by being recognized by 3 or more donors/different studies)

Substance: 1479 (LLALHRSYL) [compound 1479]
- Dominant [2]: Yes (more dominant epitopes are defined by being recognized by 3 or more donors/different studies)

Substance: 1173 (QLRARSVSPK) [compound 1173]
- Dominant [3]: Yes (more dominant epitopes are defined by being recognized by 3 or more donors/different studies)

Substance: 1514 (VVFLHVTYV) [compound 1514]
- Dominant [2]: Yes (more dominant epitopes are defined by being recognized by 3 or more donors/different studies)

Substance: 1506 (TQNVLYENQK) [compound 1506]
- Dominant [2]: Yes (more dominant epitopes are defined by being recognized by 3 or more donors/different studies)

Substance: 498 (RIRGGDGKMK) [compound 498]
- Dominant [4]: Yes (more dominant epitopes are defined by being recognized by 3 or more donors/different studies)

Substance: 1119 (ALSKGVHFV) [compound 1119]
- Dominant [3]: Yes (more dominant epitopes are defined by being recognized by 3 or more donors/different studies)

Substance: 781 (STFNVPMEK) [compound 781]
- Dominant [1]: Yes (more dominant epitopes are defined by being recognized by 3 or more donors/different studies)

Substance: 493 (FPRGQGVPI) [compound 493]
- Dominant [4]: Yes (more dominant epitopes are defined by being recognized by 3 or more donors/different studies)

Substance: 1187 (IQYIDIGNY) [compound 1187]
- Dominant [3]: Yes (more dominant epitopes are defined by being recognized by 3 or more donors/different studies)

Substance: 887 (TLGVYDYLVST) [compound 887]
- Dominant [1]: Yes (more dominant epitopes are defined by being recognized by 3 or more donors/different studies)

Substance: 1287 (CVADYSVLY) [compound 1287]
- Dominant [3]: Yes (more dominant epitopes are defined by being recognized by 3 or more donors/different studies)

Substance: 1473 (TEKSNIIRGW) [compound 1473]
- Dominant [2]: Yes (more dominant epitopes are defined by being recognized by 3 or more donors/different studies)

Substance: 877 (KLKDCVMYA) [compound 877]
- Dominant [1]: Yes (more dominant epitopes are defined by being recognized by 3 or more donors/different studies)

Substance: 1471 (RFDNPVLPF) [compound 1471]
- Dominant [2]: Yes (more dominant epitopes are defined by being recognized by 3 or more donors/different studies)

Substance: 1229 (FCNDPFLGVYY) [compound 1229]
- Dominant [3]: Yes (more dominant epitopes are defined by being recognized by 3 or more donors/different studies)

Substance: 427 (FLFLTWICL) [compound 427]
- Dominant [4]: Yes (more dominant epitopes are defined by being recognized by 3 or more donors/different studies)

Substance: 484 (RYRIGNYKL) [compound 484]
- Dominant [4]: Yes (more dominant epitopes are defined by being recognized by 3 or more donors/different studies)

Substance: 1220 (RFDNPVLPF) [compound 1220]
- Dominant [3]: Yes (more dominant epitopes are defined by being recognized by 3 or more donors/different studies)

Substance: 1248 (IYSKHTPINL) [compound 1248]
- Dominant [3]: Yes (more dominant epitopes are defined by being recognized by 3 or more donors/different studies)

Substance: 860 (VLAWLYAAV) [compound 860]
- Dominant [1]: Yes (more dominant epitopes are defined by being recognized by 3 or more donors/different studies)

Substance: 816 (SLRPDTRYVL) [compound 816]
- Dominant [1]: Yes (more dominant epitopes are defined by being recognized by 3 or more donors/different studies)

Substance: 475 (ATSRTLSYYK) [compound 475]
- Dominant [4]: Yes (more dominant epitopes are defined by being recognized by 3 or more donors/different studies)

Substance: 1477 (IYSKHTPINL) [compound 1477]
- Dominant [2]: Yes (more dominant epitopes are defined by being recognized by 3 or more donors/different studies)

Substance: 1181 (IMLIIFWFSL) [compound 1181]
- Dominant [3]: Yes (more dominant epitopes are defined by being recognized by 3 or more donors/different studies)

Substance: 1212 (STQDLFLPFF) [compound 1212]
- Dominant [3]: Yes (more dominant epitopes are defined by being recognized by 3 or more donors/different studies)

Substance: 737 (SLDTYPSLETI) [compound 737]
- Dominant [1]: Yes (more dominant epitopes are defined by being recognized by 3 or more donors/different studies)

Substance: 499 (KMKDLSPRW) [compound 499]
- Dominant [4]: Yes (more dominant epitopes are defined by being recognized by 3 or more donors/different studies)

Substance: 1105 (RIFTIGTVTLK) [compound 1105]
- Dominant [3]: Yes (more dominant epitopes are defined by being recognized by 3 or more donors/different studies)

Substance: 1483 (CVADYSVLY) [compound 1483]
- Dominant [2]: Yes (more dominant epitopes are defined by being recognized by 3 or more donors/different studies)

Substance: 1297 (KLPDDFTGCV) [compound 1297]
- Dominant [3]: Yes (more dominant epitopes are defined by being recognized by 3 or more donors/different studies)

Substance: 1498 (FTISVTTEIL) [compound 1498]
- Dominant [2]: Yes (more dominant epitopes are defined by being recognized by 3 or more donors/different studies)

Substance: 455 (RLFARTRSMW) [compound 455]
- Dominant [4]: Yes (more dominant epitopes are defined by being recognized by 3 or more donors/different studies)

Substance: 1470 (STQDLFLPFF) [compound 1470]
- Dominant [2]: Yes (more dominant epitopes are defined by being recognized by 3 or more donors/different studies)

Substance: 1109 (IPIQASLPF) [compound 1109]
- Dominant [3]: Yes (more dominant epitopes are defined by being recognized by 3 or more donors/different studies)

Substance: 466 (AVILRGHLR) [compound 466]
- Dominant [4]: Yes (more dominant epitopes are defined by being recognized by 3 or more donors/different studies)

Substance: 477 (ASQRVAGDSGFAAY) [compound 477]
- Dominant [4]: Yes (more dominant epitopes are defined by being recognized by 3 or more donors/different studies)

Substance: 1226 (TEKSNIIRGW) [compound 1226]
- Dominant [3]: Yes (more dominant epitopes are defined by being recognized by 3 or more donors/different studies)
